Measured values as given in patent publication US8575382B2, “Low molecular weight pharmacological activity modulators” (“Ivy Pharm” LLC, priority 2009, dated 2013).
Where two headings read alike, the source gives them in different places.

Columns and labels:
[1] = test system: mice with hyperglycemia caused by glucose; assay: Glucose loading test, blood sugar level; type: in vivo
Description: the glucose loading test (reduction in the sugar content in animals with hyperglycemia, caused by administration of glucose when fasting); Blood was obtained after 1 h by caudal vein puncture and the serum glucose level was determined by the ortho-toluidine method. Experiments to study the effect of the test substances on the blood glucose level were carried out on white mice weighing 17-18 g. The animals were deprived of food from the evening prior to the experiment. […] Immediately after injecting the glucose, the experimental animals were injected subcutaneously with a reference preparation (insulin in a dose of 0.3 units/kg). […] The blood glucose level was determined over a period of 4 hours with intervals of 1 hour.

[2] = test system: white rats with experimental diabetes; assay: Alloxan diabetes model; type: in vivo; details: for Cholesterol / Glucose / Total lipids / Triglycerides / β-lipoproteins: blood serum; for Body weight / Daily water consumption / Percent living: intragastrically once daily
Description: the alloxan diabetes model (reduction in the sugar content in the conditions of experimental chronic insulin insufficiency).
The alloxan diabetes model was used in another series of experiments. Alloxan diabetes was induced by a single subcutaneous injection of alloxan hydrate (Chemapol, Czech Republic) in a dose of 100 mg/kg in rats weighing 180-200 g which had fasted for 24 hours. The following groups of animals were studied: intact rats, untreated rats with diabetes, and animals with diabetes which were given thioctic acid daily for 1 month in a dose of 100 mg/kg, and thioctic acid in combination with the coordination compound in a dose of 10 mg/kg intragastrically once daily. Administration of the preparations commenced after 7 days, when the blood glucose level had roughly doubled as compared with the control. Each group contained 20 animals of both sexes. The general condition of the animals, the demand for food and water, the body weight, and the blood serum levels of glucose, total lipids, triglycerides, lipoproteins and cholesterol were recorded in the course of the experiment. […]

[3] = test system: myocardium (30-minute LCA occlusion, 90-minute reperfusion)
Description: The experiments were performed on male Wistar rats weighing 200-300 g (RAMN Rappolovo Breeding Centre, St. Petersburg) and male C57B mice weighing 25-30 g (B&K, Sollentuna, Sweden). The animals were maintained in a 12/12-hour light regime and received standard feed and drinking water ad libitum. All the experiments were conducted in accordance with the “Handbook on the care and use of laboratory animals” (USA National Institute of Health publication No. 85-23) and “Handbook on the experimental (preclinical) study of new pharmacological substances”.
Initial anesthesia of rats was performed by intraperitoneal administration of etaminal sodium (Nembutal) in a single dose of 7 mg/100 g. The experiments were performed with artificial ventilation of the lungs AVL) via a tracheotomy (respiration rate—60/min, respiratory volume—3 ml/100 g of body weight). AVL was carried out with room air using a Vita-1 unit (PO Krasnogvardeyets, St. Petersburg). A breathing valve for small laboratory animals was used, allowing the dead space volume of the apparatus to be reduced and limiting accumulation of carbon dioxide in the flow system of the apparatus. Arterial pressure (AP) was measured during the experiment using a miniature pressure sensor (Baxter, USA) via a heparinized catheter inserted into the left common carotid artery. A median skin incision was made in the neck, with subsequent blunt separation of the tissues with forceps, for access to the trachea and carotid artery. An electrocardiogram (ECG) was recorded in the course of the experiment (Kardiotekhnika-EKG-8, ZAO Inkart, St. Petersburg) with standard leads, using subcutaneous needle electrodes 2 mm in diameter and 25 mm long. At the start of the experiment, the left femoral vein was catheterized for intravenous infusion of Nembutal with the object of maintaining anesthesia and also for the administration of test preparations and, at the end of the experiment, Evans blue.
A previously described method was used to model ischemia-reperfusion of the myocardium. The heart was accessed via a thoracotomy in the fourth intercostal on the left. An L-shaped skin incision was made first, then the large and small pectoral muscles were separated layer by layer with an electrocoagulator, after which the intercostal muscles were separated and the pleura was exposed. The pericardium was then opened by a blunt method and, using the medial edge of the auricula of the left atrium on the left, and the cone of the pulmonary artery on the right, for guidance the location of the common trunk of the LCA was determined, and a polypropylene ligature for this was placed with the aid of an atraumatic needle (6-O, Cardiopoint, CV-301). Removal of the heart from the wound was avoided since, apart from causing mechanical trauma to the heart, such a manipulation inevitably leads to serious disturbances to the hemodynamics.
An occluder was formed in order to create reversible ischemia of the myocardium: the ends of the ligature surrounding the coronary artery were led into the interior of a polyethylene tube 1 mm in diameter and 5-6 cm long (PE 40), after which occlusion of the left coronary artery (LCA) was achieved by moving the tube towards the heart, and reperfusion by moving it in the opposite direction. A clamp was applied to the tube with the object of maintaining occlusion for 30 minutes. The animals were located on a thermostatted operating table during the experiment; during this time, the body temperature of the animal was maintained in the range 37.5±0.5° C.
30-minute occlusion of the LCA with subsequent 90-minute reperfusion was used to create irreversible ischemic-reperfusion damage to the myocardium, which is a test for assessing cardioprotective effects.

SMILES: O=C(O)CCCCC1CCSS1 (stereo not shown) [Thioctic acid, thioctic acid]
- Blood sugar level ([1]; 5.5 mg/kg intramuscularly, 1 hour): 4.3 ± 0.2 mmol/L
- Blood sugar level ([1]; 5.5 mg/kg intramuscularly, 2 hours): 4.0 ± 0.2 mmol/L
- Blood sugar level ([1]; 5.5 mg/kg intramuscularly, 3 hours): 4.4 ± 0.3 mmol/L
- Blood sugar level ([1]; 5.5 mg/kg intramuscularly, 4 hours): 4.1 ± 0.1 mmol/L
- Blood sugar level ([1]; 11 mg/kg intramuscularly, 1 hour): 4.5 ± 0.2 mmol/L
- Blood sugar level ([1]; 11 mg/kg intramuscularly, 2 hours): 4.2 ± 0.2 mmol/L
- Blood sugar level ([1]; 11 mg/kg intramuscularly, 3 hours): 4.2 ± 0.3 mmol/L
- Blood sugar level ([1]; 11 mg/kg intramuscularly, 4 hours): 4.2 ± 0.1 mmol/L
- Blood sugar level ([1]; 100 mg/kg intramuscularly, 1 hour): 3.0 ± 0.3 mmol/L
- Blood sugar level ([1]; 100 mg/kg intramuscularly, 2 hours): 2.8 ± 0.1 mmol/L
- Blood sugar level ([1]; 100 mg/kg intramuscularly, 3 hours): 2.5 ± 0.1 mmol/L
- Blood sugar level ([1]; 100 mg/kg intramuscularly, 4 hours): 2.4 ± 0.3 mmol/L
- Blood sugar level ([1]; 200 mg/kg intramuscularly, 1 hour): 2.7 ± 0.2 mmol/L
- Blood sugar level ([1]; 200 mg/kg intramuscularly, 2 hours): 2.6 ± 0.3 mmol/L
- Blood sugar level ([1]; 200 mg/kg intramuscularly, 3 hours): 2.3 ± 0.2 mmol/L
- Blood sugar level ([1]; 200 mg/kg intramuscularly, 4 hours): 2.1 ± 0.2 mmol/L
- hypoglycemizing effect (in words) ([1]; doses of 5.5 and 11 mg/kg, without the coordination compound): did not exhibit a hypoglycemizing effect
- Cholesterol ([2]; 14 days): 2.4 ± 0.2 mmol/L
- Glucose ([2]; 14 days): 5.2 ± 0.2 mmol/L
- Total lipids ([2]; 14 days): 10.4 ± 0.5 g/L
- Triglycerides ([2]; 14 days): 2.3 ± 0.2 mmol/L
- β-lipoproteins ([2]; 14 days): 2.1 ± 0.2 g/L
- Body weight ([2]; 14 days): 180 ± 10 g
- Daily water consumption ([2]; 14 days): 25 ± 5
- Percent living ([2]; 14 days): 100%
- Cholesterol ([2]; 20 days): 1.4 ± 0.2 mmol/L
- Glucose ([2]; 20 days): 4.8 ± 0.1 mmol/L
- Total lipids ([2]; 20 days): 10.2 ± 0.3 g/L
- Triglycerides ([2]; 20 days): 1.5 ± 0.2 mmol/L
- β-lipoproteins ([2]; 20 days): 2.1 ± 0.3 g/L
- Body weight ([2]; 20 days): 185 ± 10 g
- Daily water consumption ([2]; 20 days): 22 ± 5
- Percent living ([2]; 20 days): 100%
- Cholesterol ([2]; 30 days): 1.4 ± 0.1 mmol/L
- Glucose ([2]; 30 days): 4.6 ± 0.2 mmol/L
- Total lipids ([2]; 30 days): 9.5 ± 0.2 g/L
- Triglycerides ([2]; 30 days): 1.4 ± 0.2 mmol/L
- β-lipoproteins ([2]; 30 days): 2.1 ± 0.3 g/L
- Body weight ([2]; 30 days): 195 ± 10 g
- Daily water consumption ([2]; 30 days): 20 ± 3
- Percent living ([2]; 30 days): 100%

SMILES: Nc1ncnc2c1ncn2[C@@H]1O[C@H](CO)[C@@H](O)[C@H]1O [adenosine]
- disturbances of the heart rhythm or stopping of the heart ([3]; rat, in vivo): No disturbances of the heart rhythm or stopping of the heart
- size of the infarct zone, % of the size of the anatomical risk zone ([3]; rats, adenosine 0.1 μmol/kg i.v. infusion 30 minutes before coronary occlusion (group 1)): 64.7±3.47%
- size of the infarct zone, % of the size of the anatomical risk zone ([3]; rats, adenosine 0.25 μmol/kg i.v. 30 minutes before occlusion (group 2)): 63.1±4.31%
- size of the infarct zone, % of the size of the anatomical risk zone ([3]; rats, adenosine 0.5 μmol/kg i.v. 30 minutes before occlusion (group 3)): 62.7±4.11%
- size of the infarct zone, % of the size of the anatomical risk zone ([3]; rats, adenosine 1.0 μmol/kg i.v. 30 minutes before occlusion (group 4)): 65.1±4.84%
- size of the infarct zone, % of the size of the anatomical risk zone ([3]; rats, adenosine 2.5 μmol/kg i.v. 30 minutes before occlusion (group 5)): 60.9±5.10%
- size of the infarct zone, % of the size of the anatomical risk zone ([3]; rats, adenosine 5.0 μmol/kg i.v. 30 minutes before occlusion (group 6)): 35.9±3.59%
- size of the infarct zone, % of the size of the anatomical risk zone ([3]; rats, adenosine 10.0 μmol/kg i.v. 30 minutes before occlusion (group 7)): 32.7±3.21%
- size of the infarct zone, % of the size of the anatomical risk zone ([3]; rats, adenosine 25.0 μmol/kg i.v. 30 minutes before occlusion (group 8)): 28.2±3.43%
- size of the infarct zone, % of the size of the anatomical risk zone ([3]; rats, adenosine 50.0 μmol/kg i.v. 30 minutes before occlusion (group 9)): 26.5±2.87%
- reduction of the size of the infarct zone compared with the control, factor ([3]; rats, adenosine groups 6-9 (5.0-50.0 μmol/kg), control 63.8±3.32%): 1.5-2.5
